We go through 3 molecules from patent US20060270666A1, “Quinoxaline derivatives as neutrophil elastase inhibitors and their use” (priority 2003, published 2006).

SMILES strings stand for the structures.

In this experiment the target is T1, Human Neutrophil Elastase (HNE) (Homo sapiens, UniProt P08246).
T1 construct: Human Neutrophil Elastase (HNE) purified from serum (Calbiochem art. 324681); purchased Calbiochem 324681; host or cells: natural human material (serum)
T1 sequence (P08246 30-267): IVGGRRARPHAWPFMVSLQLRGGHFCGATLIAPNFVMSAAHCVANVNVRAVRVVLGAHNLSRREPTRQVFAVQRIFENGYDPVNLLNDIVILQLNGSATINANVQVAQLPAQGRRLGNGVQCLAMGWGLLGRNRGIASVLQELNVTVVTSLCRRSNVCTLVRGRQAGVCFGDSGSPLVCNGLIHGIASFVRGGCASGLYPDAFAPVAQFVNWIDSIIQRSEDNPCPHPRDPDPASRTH
The experiment is described as follows: Human Neutrophil Elastase Quenched-FRET Assay. Format: biochemical. The settings on record: HNE purified from serum; substrate MeOSuc-AAPV-AMC; 15 min pre-incubation, 30 min incubation at room temperature; read-out: Inhibition of Human Neutrophil Elastase IC50. The method, then:
Human Neutrophil Elastase Quenched-FRET Assay
The assay uses Human Neutrophil Elastase (HNE) purified from serum (Calbiochem art. 324681; Ref. Baugh, R. J. et al., 1976, Biochemistry. 15, 836-841). HNE was stored in 50 mM NaOAc, 200 mM NaCl, pH 5.5 with added 30% glycerol at −20° C. The protease substrate used was Elastase Substrate V Fluorogenic, MeOSuc-AAPV-AMC (Calbiochem art. 324740; Ref. Castillo, M. J. et al., 1979, Anal. Biochem. 99, 53-64). The substrate was stored in DMSO at −20° C. The assay additions were as follows: Test compounds and controls were added to black 96-well flat-bottom plates (Greiner 655076), 1 μL in 100% DMSO, followed by 30 μL HNE in assay buffer with 0.01% TritonX-100. The assay buffer constitution was: 100 mM Tris (pH 7.5) and 500 mM NaCl. The enzyme and the compounds were incubated at room temperature for 15 minutes. Then 30 μl substrate in assay buffer was added. The assay was stopped after 30 minutes incubation at room temperature by adding 60 μl stop solution (140 mM acetic acid, 200 mM sodium monochloroacetate, 60 mM sodium acetate, pH 4.3). Fluorescence was measured on a Wallac 1420 Victor 2 instrument at settings: Excitation 380 nm, Emission 460 nm. IC50 values were determined using Xlfit curve fitting using model 205.
With `Cc1ccc(CNC(=O)c2nc3ccccc3n(-c3cccc(C(F)(F)F)c3)c2=O)cc1` [Example 2.12, N-(4-Methylbenzyl)-3-oxo-4-[3-(trifluoromethyl)phenyl]-3,4-dihydroquinoxaline-2-carboxamide], the IC50 stood at 226 nM.
With `N#CC1CCC(CNC(=O)c2nc3ccccc3n(-c3cccc(C(F)(F)F)c3)c2=O)CC1` (stereo not drawn) [Example 2.10, N-[(4-Cyanocyclohexyl)methyl]-3-oxo-4-[3-(trifluoromethyl)phenyl]-3,4-dihydroquinoxaline-2-carboxamide], the IC50 was 248 nM.
As to `O=C(NCCc1ccc(F)cc1)c1nc2ccccc2n(-c2cccc(C(F)(F)F)c2)c1=O` [Example 2.20, N-[2-(4-Fluorophenyl)ethyl]-3-oxo-4-[3-(trifluoromethyl)phenyl]-3,4-dihydroquinoxaline-2-carboxamide], the half-maximal inhibitory concentration (IC50) turned out to be 573 nM.

The IC50 is the concentration that gives 50% inhibition.
